Laboratory results reported in US5256788A, “Moranoline derivatives and their production and the use of moranoline and its derivatives as a stabilizing agent for enzymes” (Nippon Shinyaku Co. Ltd., priority 1989, dated 1993).

What was measured:
glucoamylase = target: T1, glucoamylase (Rhizopus arrhizus, UniProt P07683); test: Stabilization of GA (aqueous solution) by moranoline, N-methylmoranoline; format: biochemical, Rhizopus niveus
T1 construct: maltose substrate
Description: As the enzyme, Rhizopus niveus-derived reagent glucoamylase manufactured by Seikagaku Kogyo Co., Ltd. was used.
After 5 mg of the enzyme was dissolved in 1 ml of 0.1M acetate buffer solution (pH 5.0), moranoline and N-methylmoranoline were dissolved in the solution in a concentration of 6000 μg/ml. The solution was charged in a test tube with a screw stopper followed by incubation at 50° C. Each enzyme solution was diluted with 0.1M acetate buffer solution (pH 5.0) to 100-fold and 100 μl of the dilution was taken. After 400 μl of 5% maltose solution (0.05M acetate buffer solution, pH 4.6) was added thereto, the mixture was reacted at 40° C. for 20 minutes. […] Thereafter, the system was ice cooled and absorbency was measured at 500 nm to determine the glucose amount. […] When the initial enzyme activity (amount of glucose produced) was made […], relative enzyme activity was determined. […]
After 5 mg of the enzyme was dissolved in 1 ml of 0.1M acetate buffer solution (pH 5.0), moranoline and N-methylmoranoline were dissolved in the solution in a concentration of 6000 μg/ml. […] Thereafter, the system was ice cooled and absorbancy was measured at 500 nm to determine the glucose amount. […] When the initial enzyme activity (amount of glucose produced) was made 100, relative enzyme activity was determined. […]

immobilized CGTase = target: T2, immobilized CGTase (Geobacillus stearothermophilus, UniProt P31797); test: Stabilization of immobilized CGTase, sugar transfer continuous reaction of N-methylmoranoline; format: biochemical, Bacillus stearothermophilus; conditions: 3360 h; after 140 days, 55° C., 1.5 w/v% N-methylmoranoline and 9 w/v% soluble starch, 160 ml/day; read-out: activity retained
T2 construct: purchased Hayashibara Biochemical Research Institute
T2 sequence (P31797 32-711): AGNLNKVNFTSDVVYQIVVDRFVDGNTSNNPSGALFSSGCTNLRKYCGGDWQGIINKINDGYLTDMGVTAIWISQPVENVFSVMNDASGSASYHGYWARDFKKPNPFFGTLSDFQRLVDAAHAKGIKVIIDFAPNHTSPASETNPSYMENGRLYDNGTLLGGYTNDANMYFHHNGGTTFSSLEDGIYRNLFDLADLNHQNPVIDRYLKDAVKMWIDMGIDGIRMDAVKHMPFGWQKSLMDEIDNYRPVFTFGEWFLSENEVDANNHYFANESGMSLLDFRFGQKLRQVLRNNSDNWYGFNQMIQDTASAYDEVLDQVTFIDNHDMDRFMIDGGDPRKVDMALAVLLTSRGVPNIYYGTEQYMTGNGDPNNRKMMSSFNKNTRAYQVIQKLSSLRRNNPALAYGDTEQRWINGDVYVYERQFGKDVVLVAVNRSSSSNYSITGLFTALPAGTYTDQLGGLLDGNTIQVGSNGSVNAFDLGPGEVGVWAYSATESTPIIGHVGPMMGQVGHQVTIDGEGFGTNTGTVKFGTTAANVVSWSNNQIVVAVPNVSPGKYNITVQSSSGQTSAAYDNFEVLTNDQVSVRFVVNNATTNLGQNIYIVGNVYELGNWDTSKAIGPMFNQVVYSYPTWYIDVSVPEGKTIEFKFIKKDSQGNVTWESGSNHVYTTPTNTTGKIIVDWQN
Description: The immobilized CGTase, 20 ml, obtained in Reference Example 1 was packed in a column having a diameter of 1 cm equipped with a jacket and a solution with the pH being not adjusted containing 1.5 w/v% of N-methylmoranoline and 9 w/v% of soluble starch was continuously passed through the column at 55° C. in a passing velocity of 160 ml/day to react them, whereby the reaction progress rate of the passing liquid was determined with passage of time. The reaction progress rate and activity retention rate were determined in a manner similar to Reference 4. The results reveal that even after 140 days, almost 100% of the activity was retained.
The immobilized CGTase, 20 ml, obtained in Reference Example A was packed in a column having a diameter of 1 cm equipped with a jacket and a solution with the pH being not adjusted containing 1.5 w/v% of N-methylmoranoline and 9 w/v% of soluble starch was continuously passed through the column at 55° C. in a passing velocity of 160 ml/day to react them, whereby the reaction progress rate of the passing liquid was determined with passage of time. The reaction progress rate and activity retention rate were determined in a manner similar to Example 27.

β-glucosidase = test: Stabilization of β-glucosidase by moranoline and N-methylmoranoline; format: biochemical; conditions: 6 mg/ml of the hydrochloride, kept at 60° C.
Description: Test samples were (1) 1 ml of 0.2M buffer solution of β-glucosidase (300 μg/ml) alone, (2) 1 ml of 0.2M buffer solution of β-glucosidase (300 μg/ml) supplemented with 6 mg/ml of moranoline hydrochloride and, (3) 1 ml of 0.2M buffer solution of β-glucosidase (300 μg/ml) supplemented with 6 mg/ml of N-methylmoranoline hydrochloride. These test samples were kept at 60° C. and the residual enzyme activity was measured with passage of time.
For determination of the enzyme activity, there was used a method measuring absorbancy at 400 nm using […] as a substrate.
That is, 200 μl of 0.014M p-nitrophenyl-β-D-glucoside, 200 μl of the enzyme solution taken from each sample for sampling with passage of time which was appropriately diluted, and 600 μl of 0.2M acetate buffer solution (pH 4.5) were reacted at 30° C. for 15 minutes. After 2 ml of 0.1M disodium carbonate was added thereto to terminate the reaction, a color was formed and the color was measured at 400 nm. When absorbancy at the initiation of the reaction was made 100, relative absorbancy in each time was defined to be residual activity.

T1 sequence (P07683 26-604): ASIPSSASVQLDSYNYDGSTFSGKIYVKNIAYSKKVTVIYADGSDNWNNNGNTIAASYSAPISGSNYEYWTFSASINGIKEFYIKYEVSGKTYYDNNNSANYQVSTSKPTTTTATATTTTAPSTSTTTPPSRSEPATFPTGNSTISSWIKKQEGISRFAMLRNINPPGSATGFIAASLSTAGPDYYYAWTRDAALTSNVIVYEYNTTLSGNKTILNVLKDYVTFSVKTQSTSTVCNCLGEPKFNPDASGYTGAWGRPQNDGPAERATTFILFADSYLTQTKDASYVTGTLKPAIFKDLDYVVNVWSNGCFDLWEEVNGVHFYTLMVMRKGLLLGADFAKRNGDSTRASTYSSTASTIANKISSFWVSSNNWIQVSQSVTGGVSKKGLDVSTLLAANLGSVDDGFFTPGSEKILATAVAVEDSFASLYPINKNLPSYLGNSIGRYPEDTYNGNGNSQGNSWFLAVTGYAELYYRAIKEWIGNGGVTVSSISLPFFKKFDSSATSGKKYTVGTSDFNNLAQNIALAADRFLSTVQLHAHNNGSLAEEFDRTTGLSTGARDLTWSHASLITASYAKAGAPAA

**Q.** How did the “inhibition of the enzyme activity of glucoamylase” value (glucoamylase) turn out when `CN1C[C@H](O)[C@@H](O)[C@H](O)[C@H]1CO` [N-methylmoranoline] was run?
**A.** inhibit the enzyme activity of glucoamylase

**Q.** What about the activity at 15000 µg/mL (immobilized CGTase) of the same molecule?
**A.** ~100%

**Q.** And the “stabilizing effect (residual activity, FIG. 4)” value (β-glucosidase)?
**A.** stabilizing effect
